Values quoted from earlier work in patent US20160280572A1, “POLYMERS FOR FLOCCULATION, DEWATERING AND CONSOLIDATION OF OIL SANDS FLUID FINE TAILINGS, MINE TAILINGS AND SOLID PARTICULATE SUSPENSIONS” (THE GOVERNORS OF THE UNIVERSITY OF ALBERTA, priority 2015, published 2016).
In brackets after ≈: the same amount, converted by molar mass.

Conditions: in water, 20 Celsius

| Structure (SMILES) | Solubility [mg/mL] |
| --- | --- |
| C=CC#N [Acrylonitrile] | 70 (≈ 1320 mM) |
| C=C(C)C(N)=O [Methacrylamide] | 202 (≈ 2370 mM) |
| C=CC(=O)OC [methyl acrylate] | 60 (≈ 697 mM) |
| C=C(C)C(=O)OC [methyl methacrylate] | 16 (≈ 160 mM) |
| C=Cc1ccccc1 [styrene] | 0.3 (≈ 2.88 mM) |
| C=COC(C)=O [vinyl acetate] | 25 |

Same assay, conditions: in water, temperature Not Listed

| Structure (SMILES) | Solubility [mg/mL] |
| --- | --- |
| C=C(C)C(=O)OCCCC [butyl methacrylate] | 6 (≈ 42.2 mM) |
